The source of these data is paper PMC3792051, “Polyenylpyrrole Derivatives Inhibit NLRP3 Inflammasome Activation and Inflammatory Mediator Expression by Reducing Reactive Oxygen Species Production and Mitogen-Activated Protein Kinase Activation” (PLoS ONE, 2013).

This assay concerns LPS-activated RAW 264.7 macrophages. Description: Intracellular ROS production (DCF fluorescence), LPS-induced. Format: cell-based, murine. The conditions noted are these: RAW 264.7, 30 min pretreatment; compound 1h 20 µM, NAC 10 mM. On the procedure: Intracellular ROS production was measured by detecting the fluorescence intensity of the 2’, 7’-dichlorofluorescein, the oxidation product of 2’, 7’-dichlorofluorescein diacetate (Molecular Probes, Eugene, OR). In one study, RAW 264.7 macrophages (5 × 10^5/ml; 0.1 ml) were incubated with vehicle, compound 1h (20 µM), or NAC (10 mM) for 30 min, then 2’, 7’-dichlorofluorescein diacetate (2 µM) was added for 30 min, then LPS was added for the indicated time. In another, J774A.1 macrophages (5 × 10^5/ml; 0.1 ml) were incubated with LPS (1 µg/ml) for 6 h, then vehicle, compound 1h (20 µM), or DPI (25 µM) was added for 30 min. 2’, 7’-dichlorofluorescein diacetate (2 µM) was then added for 30 min before incubation with ATP (5 mM) for the indicated time; while, in another, the order of addition of compound1h/DPI and LPS was reversed. The fluorescence intensity of 2’, 7’-dichlorofluorescein was detected at an excitation wavelength of 485 nm and an emission wavelength of 530 nm on a microplate absorbance reader (Bio-Rad Laboratories, Inc).
To test whether compound 1h exerted its anti-inflammatory effect on LPS-activated cells by downregulation of ROS production, intracellular ROS production in LPS-activated RAW 264.7 macrophages was measured.
Figure 5 Effect of compound 1h on ROS production and MAPK phosphorylation in LPS-activated macrophages. […]

In the case of `O=c1cc(O)cc(/C=C/C=C/C=C/C=C/c2[nH]ccc2Cl)o1` [compound 1h], the “LPS-stimulated ROS production” value is “reduced LPS-stimulated ROS production”.
